In patent publication US20240114902A1, “COMPOSITIONS AND METHODS FOR DETERRING OVIPOSITION BY FRUIT FLIES” (The United States of America, as represented by The …, priority 2022, published 2024):

Assays:
Assay type in all cases: in vivo
[1] = test system: Bactrocera dorsalis; assay: B. dorsalis spatial deterrence, two-choice traps baited with guava juice; settings: tested individually
Protocol: In addition to CFA, a series of odd-numbered carbon fatty acids (C9:0 to C17:0) and fatty acid methyl esters were evaluated for the spatial deterrence to B. dorsalis that results in oviposition reduction. Table 3 below lists the fatty acid methyl esters tested for spatial repellency for Bactrocera dorsalis. […] FIG. 16A, FIG. 16C, FIG. 16E, FIG. 16G, FIG. 16I, FIG. 16K, FIG. 16M, FIG. 16O, FIG. 16Q, and FIG. 16S show the mean numbers (±SEM) of mated female B. dorsalis flies captured, and FIG. 16B, FIG. 16D, FIG. 16F, FIG. 16H, FIG. 16J, FIG. 16L, FIG. 16N, FIG. 16P, FIG. 16R, and FIG. 16T show the number of B. dorsalis eggs oviposited in traps baited with guava juice (control) and with guava juice plus one of the coconut fatty acid methyl ester compounds in two-choice bioassays. For each test, different letter on the bar indicate a significant difference by Tukey-Kramer tests at P<0.05, n=4.

[2] = test system: Bactrocera dorsalis (OFF); assay: OFF two-choice cage oviposition bioassay on guava juice-infused agar; set-up: key to Activity (OFF oviposition group): Negative: “OFF negative” (i.e., oviposition reduced); Neutral: “OFF neutral” (i.e., no effect on oviposition); Positive: “OFF positive” (i.e., oviposition increased); settings: for effect on OFF oviposition vs control agar / OFF oviposition deterrence at lower dose: individual compound; for effect on OFF oviposition vs control agar / OFF oviposition increase vs control agar / OFF oviposition reduction vs control agar: 20 mg/agar; for Activity (OFF oviposition group): individual CFA component; for OFF oviposition increase vs control agar: ethanol control; for OFF oviposition reduction vs control agar: 3 days; for OFF oviposition deterrence at lower dose: 2 mg dose
Protocol: Evaluation of oviposition deterrence of CFA: OFF oviposition bioassays were conducted using laboratory two-choice cage experiments with guava juice-infused agar as an oviposition substrate. The agar plates were prepared by pouring 30 mL of boiled agar mixture [1000 mL distilled water, 500 mL guava juice (Deans Foods, El Paso, Texas, USA), 10 g agar, 0.6 g methylparaben, 6.7 mL 95% ethanol, and 3 mL acetic acid] into a 30 mL deli plastic cup to gel. The agar was then covered with a lid to avoid desiccation. The two-choice oviposition bioassay was conducted in screened cages using 20 mated OFF females per cage (12-18 day-old; Jang E B et al., 1997, “Attraction of female oriental fruit fly, Bactrocera dorsalis, to volatile semiochemicals from leaves and extracts of a non-host plant, Panax (Polyscias guilfoylei) in laboratory and olfactometer assays,” J. Chem. Ecol. 23:1389-1401) over 3 days. Each cage was provided with a ball of water-saturated cotton, sugar, and protein hydrolysate in separate 30 mL deli cups and two guava juice agar plates-one treated with CFA diluted in hexane and the other treated with the hexane control. The agar plates were surface-treated either with 200 μL of hexane or 200 μL of CFA in one of 4 doses tested (20, 2, 0.2, and 0.02 mg/200 μL of hexane), placed into a fume hood for 10 minutes prior to use in bioassays, and positioned upside-down (i.e., treated side down) on the center of the outside top of the screened cage 17 cm apart from each other (i.e., one each of control and CFA treated), allowing female flies to oviposit on guava juice agar from the bottom through the cage screen. After three days, OFF eggs in the guava agar were gently separated from the agar in water and the number of eggs were individually counted (up to 100 eggs) or estimated volumetrically at 1 mL OFF eggs=20,000 eggs (Stephanie Gayle personal communication). The experiment was replicated six times per treatment. Determination of bioactive oviposition deterrent components from CFA: A series of bioassays was conducted to identify key deterrent components of CFA for OFF using the same two-choice bioassay design described above. […] Ethanol was used as control and for preparing dilutions of C16:0 and C18:0. Hexane was used as control and for dilutions of the other six compounds tested. Based on the outcome of these bioassays, the eight free fatty acid components were assigned to “OFF negative” (i.e., oviposition reduced), “OFF neutral” (i.e., no effect on oviposition), and “OFF positive” (i.e., oviposition increased) compound groups. Using these groupings, four different blends were formulated (indicated in Table 1), composed at the equivalent ratios and concentrations of each component found in CFA (Zhu J J et al., 2018, supra), to determine key bioactive CFA components in terms of oviposition deterrence on OFF. The approach involved testing the bioactivity of the OFF negative-component blend (4c blend) for oviposition deterrence at three different doses (2, 0.2, and 0.02 mg CFA equivalent/agar), first comparing with hexane control, then with CFA at respective equivalent doses. As the 4c blend was not as effective as CFA, a “OFF negative+OFF neutral” component blend (6c blend) was then formulated, and its effect compared with CFA at 2 and 0.2 mg CFA equivalent/agar. Two subtraction blends with one of the two OFF neutral components removed from the 6c blend (5c-i and 5c-ii blends) were formulated and compared with the 6c blend at 2 and 0.2 mg CFA equivalent/agar. The experiment was replicated four to six times per treatment.

[3] = test system: Zeugodacus cucurbitae; assay: Z. cucurbitae two-choice oviposition bioassay on pumpkin juice-infused agar; set-up: key to Behavioral activity (Z. cucurbitae oviposition group): Negative: “negative” (i.e., oviposition reduced); Neutral: “neutral” (i.e., no effect on oviposition); Positive: “positive” (i.e., oviposition increased); settings: for Z. cucurbitae oviposition increase vs ethanol control agar: 24 hours; for Behavioral activity (Z. cucurbitae oviposition group): individual CFFA component; for Z. cucurbitae oviposition reduction vs control agar: individual compound
Protocol: Oviposition bioassays were conducted with mated female flies, using pumpkin juice-infused agar as an oviposition substrate. A small petri dish (60×15 mm) filled with 10 mL of 1% agar mixed in pumpkin juice was used as an oviposition substrate. The agar plates were surface-treated either with 200 μL of ethanol or 200 μL of CFFA in one of 4 doses tested (20, 2, 0.2, and 0.02 mg/200 μL of ethanol), placed into a fume hood for 10 minutes for solvent evaporation prior to use in bioassays, and positioned upside-down (i.e. treated side down) on top of the 30×30×30 cm (W×L×H) screened cage 17 cm apart from each other (i.e. one each of control and CFFA treated), allowing 20 female flies (14 to 18 day-old) to oviposit on pumpkin juice agar from the bottom through the cage screen for 24 hours. Each cage was provided with a ball of water-saturated cotton, sugar, and protein hydrolysate in separate 30 mL deli cups and two oviposition substrates-one treated with CFFA diluted in ethanol and the other treated with the ethanol control. After 24 hours, Z. cucurbitae eggs in the pumpkin agar were gently separated from the agar in water and the number of eggs were individually counted. The experiment was replicated five times per treatment. CFFA was not an effective oviposition deterrent for Z. cucurbitae which is contrary to our previous work on B. dorsalis (Roh et al., 2023a). […] CFFA components were categorized into three groups “negative” (i.e., oviposition reduced), “neutral” (i.e., no effect on oviposition), and “positive” (i.e., oviposition increased) based on bioassay outcome. Using these categories, further formulations were made to determine key bioactive CFFA components in terms of oviposition deterrence on Z. cucurbitae at the equivalent ratios and concentrations of each component found in CFFA (Zhu et al. 2018). The approach involved testing the bioactivity of the negative-component blend (4c blend) for oviposition deterrence at three different doses (2, 0.2, and 0.02 mg CFFA equivalent/agar), compared with ethanol control. Further, neutral compound is added to the negative blend i.e., ‘negative+neutral’ component blend (5c blend) to identify key compounds for oviposition deterrence. The experiment was replicated five times per treatment.

[4] = test system: Drosophila suzukii (SWD); assay: SWD laboratory two-choice oviposition bioassay on raspberries; set-up: key to Behavioral activity (SWD oviposition group): Negative: “SWD negative” compounds (i.e., SWD oviposition was reduced); Neutral: “SWD neutral” compounds (i.e., no effect on oviposition); settings: two-choice; for Behavioral activity (SWD oviposition group): individual CFA component; for effect on SWD oviposition vs control: individual compound, 20 mg dose
Protocol: Laboratory choice test 1 Oviposition bioassays were conducted at USDA-ARS in Hilo, Hawaii using a laboratory two-choice cage experimental set-up with organic raspberries purchased from a local grocery as an oviposition substrate. For all laboratory assays listed below, the receptacles of the raspberries were stuffed with cotton to prevent flies from ovipositing on the interior of the fruit as described previously in Cha D H et al. (2021, supra). The two-choice oviposition bioassay was conducted over 24 hours in screened cages (30 cm W×30 cm L×30 cm H; BugDorm-2120 Insect tent; shop.bugdorm.com) with 30 female and 10 male SWD (7-8 days old) released per cage. Each cage was provided with cotton moistened with water in a 20 mL deli cup and two 30 mL deli cups; one with two raspberries treated with CFA diluted in hexane and the other with two raspberries treated with hexane only. Each raspberry was surface-treated either with 200 μL of hexane or 200 μL of CFA in one of three doses (20, 2, or 0.2 mg CFA/200 μL hexane), placed into a fume hood for 10 minutes or until used in the bioassay. The deli cups with the treated berries were positioned in the center of the floor of the screened cage, 17 cm apart from each other. Female flies were allowed to oviposit on the surface of raspberries for 24 hours. At the conclusion of the bioassay, each 30 mL deli cup containing two raspberries was moved into a 600 mL deli cup with a mesh cap, held for 8 days (22.1±1.9° C., 71.7±3.1% RH, 16:8 L:D), when the number of larvae and pupae were counted. The experiment was replicated four times per treatment. Laboratory choice test 2 A series of bioassays were conducted in Hilo, Hawaii to identify key bioactive deterrent components of CFA for SWD using the same two-choice bioassay described above. […] Due to solubility differences, ethanol was used as control and for dilution of C16:0 and C18:0, while hexane was used as control and for dilution of the other six compounds tested. Based on the outcome of these bioassays, the eight free fatty acid components of CFA were grouped into two groups; “SWD negative” compounds (i.e., SWD oviposition was reduced) and “SWD neutral” compounds (i.e., no effect on oviposition), and tested whether the blend of “SWD negative” compounds had the same oviposition deterrence as the CFA at their equivalent concentrations as in CFA (see Table 2). The oviposition deterrence of the blend of “SWD negative” compounds was first compared to hexane at three different doses (20, 2 and 0.2 mg CFA equivalent/raspberry) and subsequently compared to CFA at 2 mg equivalent dose.

CCCCCCCCC(=O)OC [C9:0 ME, Methyl pelargonate]
effect on female B. dorsalis attraction and oviposition to host fruit odors [1]: significantly reduced

CCCCCCCCCCC(=O)OC [C11:0 ME, Methyl undecanoate]
effect on female B. dorsalis attraction and oviposition to host fruit odors [1]: significantly reduced

CCCCCCCCCCC(=O)O [C11:0, Undecylic acid]
effect on OFF oviposition vs control agar [2]: significantly reduced

CCCCCCCCCCCC(=O)O [C12:0, lauric acid]
Z. cucurbitae oviposition increase vs ethanol control agar ([3]; 20 mg dose): 86.4%
Behavioral activity (Z. cucurbitae oviposition group) [3]: Positive
Activity (OFF oviposition group) [2]: Neutral
effect on OFF oviposition vs control agar [2]: did not affect OFF oviposition
Behavioral activity (SWD oviposition group) [4]: Neutral
effect on SWD oviposition vs control [4]: did not increase or decrease SWD oviposition

CCCCCCCCCCCCC(=O)OC [C13:0 ME, Methyl tridecanoate]
effect on female B. dorsalis attraction and oviposition to host fruit odors [1]: significantly reduced

CCCCCCCCCCCCCC(=O)O [C14:0, myristic acid]
Z. cucurbitae oviposition increase vs ethanol control agar ([3]; 20 mg dose): 77.7%
Behavioral activity (Z. cucurbitae oviposition group) [3]: Positive
Activity (OFF oviposition group) [2]: Neutral
effect on OFF oviposition vs control agar [2]: did not affect OFF oviposition
Behavioral activity (SWD oviposition group) [4]: Neutral
effect on SWD oviposition vs control [4]: did not increase or decrease SWD oviposition

CCCCCCCCCCCCCCC(=O)OC [C15:0 ME, Methyl pentadecanoate]
effect on female B. dorsalis attraction and oviposition to host fruit odors [1]: significantly reduced

CCCCCCCCCCCCCCCC(=O)O [C16:0, palmitic acid]
Z. cucurbitae oviposition increase vs ethanol control agar ([3]; 20 mg dose): 67.3%
Behavioral activity (Z. cucurbitae oviposition group) [3]: Positive
OFF oviposition increase vs control agar [2]: 60%
Activity (OFF oviposition group) [2]: Positive
Behavioral activity (SWD oviposition group) [4]: Neutral
effect on SWD oviposition vs control [4]: did not increase or decrease SWD oviposition

CCCCCCCCCCCCCCCCCC(=O)O [C18:0, stearic acid]
effect on Z. cucurbitae oviposition ([3]; 20 mg dose): did not affect oviposition
Behavioral activity (Z. cucurbitae oviposition group) [3]: Neutral
OFF oviposition increase vs control agar [2]: 29%
Activity (OFF oviposition group) [2]: Positive
Behavioral activity (SWD oviposition group) [4]: Neutral
effect on SWD oviposition vs control [4]: did not increase or decrease SWD oviposition

CCCCCCCC/C=C\CCCCCCCC(=O)O [C18:1, oleic acid]
effect on Z. cucurbitae oviposition ([3]; 2 mg dose): either lost oviposition deterrence or increased oviposition
Behavioral activity (Z. cucurbitae oviposition group) [3]: Negative
Z. cucurbitae oviposition reduction vs control agar ([3]; 20 mg dose): 98.1%
OFF oviposition reduction vs control agar [2]: 100%
Activity (OFF oviposition group) [2]: Negative
OFF oviposition deterrence at lower dose [2]: maintained OFF oviposition deterrence
Behavioral activity (SWD oviposition group) [4]: Neutral
effect on SWD oviposition vs control [4]: did not increase or decrease SWD oviposition

CCCCC/C=C\C/C=C\CCCCCCCC(=O)O [C18:2, linoleic acid]
effect on Z. cucurbitae oviposition ([3]; 2 mg dose): either lost oviposition deterrence or increased oviposition
Behavioral activity (Z. cucurbitae oviposition group) [3]: Negative
Z. cucurbitae oviposition reduction vs control agar ([3]; 20 mg dose): 96.4%
OFF oviposition reduction vs control agar [2]: 99%
Activity (OFF oviposition group) [2]: Negative
OFF oviposition deterrence at lower dose [2]: maintained OFF oviposition deterrence
Behavioral activity (SWD oviposition group) [4]: Neutral
effect on SWD oviposition vs control [4]: did not increase or decrease SWD oviposition
